The record followed here is patent US20210130339A1, “COMPOUNDS” (GLAXOSMITHKLINE INTELLECTUAL PROPERTY DEVELOPMENT LIMITED, priority 2017, published 2021).

Assay [1] deals with T1, recombinant full length LRRK2 (Homo sapiens, UniProt Q5S007).
T1 construct: A BacMam virus expressing full length recombinant LRRK2 was purchased from Invitrogen; host or cells: SH-SY5Y human neuroblastoma cells transduced with BacMam LRRK2 virus (MOI 50)
As to the kind of experiment: Recombinant cellular LRRK2 AlphaScreen assay. In kind it is cell-based. Conditions: LRRK2 Ser935 phosphorylation, SH-SY5Y cells over-expressing recombinant full length LRRK2; read-out: pIC50 in the recombinant cellular LRRK2 AlphaScreen assay (converted). From the text: b. Recombinant Cellular LRRK2 AlphaScreen Assay
To determine the activity of compounds against LRRK2 kinase activity in cells, the observed LRRK2 kinase-dependent modulation of LRRK2 Ser 935 phosphorylation (Dzamko et al., 2010, Biochem. J. 430: 405-413) was utilized to develop a quantitative 384 well plate-based immunoassay of LRRK2 Ser935 phosphorylation in the human neuroblastoma cell line SH-SY5Y, engineered to over-express recombinant full length LRRK2 protein. A BacMam virus expressing full length recombinant LRRK2 was purchased from Invitrogen and amplified by inoculation of SF-9 cells at MOI 0.3 for 4-5 days in Sf-900 III SFM medium supplemented with 3% fetal bovine serum. Infected cell cultures were then centrifuged at 2000 g for 20 minutes, viral supernatant titer determined by anti-gp64 plaque assay and stored at 4° C. Affinity-purified anti-phospho LRRK2 Ser935 sheep polyclonal antibody (Dzamko et al., 2010, Biochem. J. 430: 405-413) was biotinylated by standard methods (PerkinElmer). Anti-LRRK2 rabbit polyclonal antibody was purchased from Novus Biologicals. AlphaScreen Protein A IgG Kit (including acceptor and donor beads) was purchased from Perkin Elmer. SH-SY5Y cells were grown in DMEM/F12 medium with 10% dialysed fetal bovine serum and harvested by treatment with 0.5% trypsin-EDTA for 5 minutes at 37° C. followed by centrifugation at 1000 rpm for 4 minutes. The cell pellet was resuspended in Opti-MEM reduced serum media (Invitrogen) at 200,000 cells/ml and mixed with the BacMam LRRK2 virus at MOI=50. 50 μl cell solutions were then dispensed to each well of a 384-well plate and incubated at 37° C., 5% CO2 for 24 hours. Serial dilutions of test compounds were prepared in Opti-MEM reduced serum media (Invitrogen) and 5.6 ul transferred from compound plate to cell assay plate to achieve a top final assay concentration of 10 uM. DMSO was used in certain wells as controls. Cells were incubated at 37° C., 5% CO2 for 60 minutes. The medium was then removed and cells lysed by addition of 20 ul cell lysis buffer (Cell Signaling Technology) and incubation at 4° C. for 20 minutes. 10 ul of antibody/acceptor bead mix [(1/1000 biotinylated-pS935 LRRK2 antibody, 1/1000 total-LRRK2 antibody, 1/100 Acceptor beads in AlphaScreen detection buffer (25 mM Hepes (pH 7.4), 0.5% Triton X-100, 1 mg/ml Dextran 500 and 0.1% BSA)] was then added to each well and plates incubated for 2 hours at ambient temperature in the dark. 10 μl of donor beads solution (1/33.3 donor beads in AlphaScreen detection buffer) was then added to each well. Following incubation for a further 2 hours at ambient temperature in the dark, plates were read on an EnVision™ plate reader at emission 520-620 nm with excitation 680 nm. Dose response curve data was based on sigmoidal dose-response model.
(In Alpha technology, singlet oxygen from a donor bead excites a nearby acceptor bead.)

Assay [2] concerns the target T2, Full length G2019 human LRRK2 (Homo sapiens, UniProt Q5S007).
T2 construct: purified recombinant Full length Flag-LRRK2 in assay buffer; made in house; host or cells: HEK293 6E cells transduced with BacMam virus (virus generated in Sf9 cells)
As to the kind of experiment: Full length G2019 human LRRK2 Inhibition Mass Spectrometry assay. Conditions: LRRKtide substrate, RapidFire mass spectrometry; read-out: pIC50 in the Full length G2019 human LRRK2 Inhibition Mass Spectrometry assay (converted). It counts as biochemical. As for the experimental part:
a. Full Length G2019 Human LRRK2 Inhibition Mass Spectrometry Assay
This assay for Leucine Rich Repeat Kinase 2 (LRRK2) inhibition is based on the direct measurement of the peptide ‘LRRKtide’ (LRRKtide: RLGRDKYKT*LRQIRQ and “*” refers to the site of phosphorylation.) and phosphorylated ‘LRRKtide’ using a high throughput RapidFire mass spectrometry assay. Inhibitors are compounds that reduce the conversion of LRRKtide to phospho-LRRKtide.
HEK293 6E cells were incubated in a 37° C. incubator with a humidified atmosphere of 5% CO2 on an orbital shaker rotating at 110 rpm. On the day of transduction, the cell viability was higher than 98% and the cell density was in the range of 1×10^6˜1.5×10^6 cells/ml. HEK293 6E cells were centrifuged at 1,000 rpm for 10 min, and then the cells were resuspended in fresh Freestyle 293 expression medium (Invitrogen:12338) with 0.1% F-68 (Invitrogen:24040-032) but without antibiotics (G418) at density of 1×10^6 cells/ml. BacMam virus with Flag-hu LRRK2 (genotypically normal) gene was centrifuged at 40,000 g for 2 hours, then resuspended in fresh Freestyle 293 expression medium. The resuspended virus was added into the cells in at MOI of 10. The cells were incubated in a 37° C. incubator with a humidified atmosphere of 5% CO2 in air on an orbital shaker rotating at 110 rpm. Cultures were harvested at approximately 48 hours post-transduction by centrifugation at 4,000 rpm for 20 min and pellets were frozen for purification.
The suspended cells were lysed by sonication on ice for 30 min (2 secs on/4 sec off, 20% amplitude), and centrifuged at 10,000 rpm for 30 minutes at 4° C. The supernatant was incubated with 1 mL per litre of cell culture of anti-Flag magnetic beads (Sigma-Aldrich: M8823) at 4° C. for 3 hours, then the beads were washed by 5 mL (5 column volume) binding buffer (50 mM Tris pH7.5@ 4C, 500 mM NaCl, 0.5 mM EDTA, 0.1% TritonX-100, 10% glycerol, freshly add 2 mM DTT) for three times. The Flag tagged LRRK2 proteins were eluted by Elution buffer (50 mM Tris pH7.5@ 4C, 500 mM NaCl, 0.5 mM EDTA, 0.1% TritonX-100, 10% glycerol, freshly add 2 mM DTT, 250 ug/ml Flag peptide (Sigma-Aldrich:F3290)) at 4° C. for 2 hours. Flag peptide was removed by Zeba Spin Desalting Columns, 7K MWCO (Thermo-Fisher: 89893) and the buffer of eluted LRRK2 proteins was exchanged into Storage Buffer (50 mM Tris pH7.5@4C, 150 mM NaCl, 0.5 mM EDTA, 0.02% Triton X-100, 2 mM DTT and 50% Glycerol) using Amicon Ultra Centrifugal Filter Units (100 kD) (Merck: UFC910096). Fractions containing LRRK2 proteins were pooled, aliquoted and stored at −80° C. Protein concentration was determined by Bradford protein assay, and protein purity was analyzed by NuPAG Novex 4-12% Bis-Tris Protein Gels (Invitrogen: NP0322BOX).
• 1) A 10 mM test compound was dissolved in 100% DMSO and serially diluted 1 in 4. 100 nL of this dilution series was then added to a 384 well, v bottom polypropylene plate, excluding columns 6 and 18. 100 nL of DMSO was added to columns 6 and 18 as controls wells. Assay dilution gave a top final assay concentration of test compound of 100 μM • 2) 50 μl of 1% formic acid in laboratory grade water was added to column 18 using a multidrop combi dispenser to act as a pre stopped assay control. • 3) 5 μl of ‘enzyme solution’ containing 50 nM of purified recombinant Full length Flag-LRRK2 in assay buffer (50 mM Hepes (pH 7.2), 10 mM MgCl2, 150 mM NaCl, 5% glycerol, 0.0025% triton X-100 and 1 mM DTT) was added to all wells using a multidrop combi dispenser, giving a final assay concentration of 25 nM LRRK2 enzyme. […] Test plates were then incubated for 30 minutes at room temperature. • 4) 5 μl ‘substrate solution’ containing 50 uM LRRKtide peptide substrate and 4 mM ATP was added to all wells of the plate using a multidrop combi dispenser giving a final assay concentration of 25 uM LRRKtide and 2 mM ATP. Test plates were then incubated for 1 hour at room temperature. […]

A value given as a limit tells only on which side of the number the result lay.

T2 sequence (Q5S007 with tags, fused parts or gaps R50H): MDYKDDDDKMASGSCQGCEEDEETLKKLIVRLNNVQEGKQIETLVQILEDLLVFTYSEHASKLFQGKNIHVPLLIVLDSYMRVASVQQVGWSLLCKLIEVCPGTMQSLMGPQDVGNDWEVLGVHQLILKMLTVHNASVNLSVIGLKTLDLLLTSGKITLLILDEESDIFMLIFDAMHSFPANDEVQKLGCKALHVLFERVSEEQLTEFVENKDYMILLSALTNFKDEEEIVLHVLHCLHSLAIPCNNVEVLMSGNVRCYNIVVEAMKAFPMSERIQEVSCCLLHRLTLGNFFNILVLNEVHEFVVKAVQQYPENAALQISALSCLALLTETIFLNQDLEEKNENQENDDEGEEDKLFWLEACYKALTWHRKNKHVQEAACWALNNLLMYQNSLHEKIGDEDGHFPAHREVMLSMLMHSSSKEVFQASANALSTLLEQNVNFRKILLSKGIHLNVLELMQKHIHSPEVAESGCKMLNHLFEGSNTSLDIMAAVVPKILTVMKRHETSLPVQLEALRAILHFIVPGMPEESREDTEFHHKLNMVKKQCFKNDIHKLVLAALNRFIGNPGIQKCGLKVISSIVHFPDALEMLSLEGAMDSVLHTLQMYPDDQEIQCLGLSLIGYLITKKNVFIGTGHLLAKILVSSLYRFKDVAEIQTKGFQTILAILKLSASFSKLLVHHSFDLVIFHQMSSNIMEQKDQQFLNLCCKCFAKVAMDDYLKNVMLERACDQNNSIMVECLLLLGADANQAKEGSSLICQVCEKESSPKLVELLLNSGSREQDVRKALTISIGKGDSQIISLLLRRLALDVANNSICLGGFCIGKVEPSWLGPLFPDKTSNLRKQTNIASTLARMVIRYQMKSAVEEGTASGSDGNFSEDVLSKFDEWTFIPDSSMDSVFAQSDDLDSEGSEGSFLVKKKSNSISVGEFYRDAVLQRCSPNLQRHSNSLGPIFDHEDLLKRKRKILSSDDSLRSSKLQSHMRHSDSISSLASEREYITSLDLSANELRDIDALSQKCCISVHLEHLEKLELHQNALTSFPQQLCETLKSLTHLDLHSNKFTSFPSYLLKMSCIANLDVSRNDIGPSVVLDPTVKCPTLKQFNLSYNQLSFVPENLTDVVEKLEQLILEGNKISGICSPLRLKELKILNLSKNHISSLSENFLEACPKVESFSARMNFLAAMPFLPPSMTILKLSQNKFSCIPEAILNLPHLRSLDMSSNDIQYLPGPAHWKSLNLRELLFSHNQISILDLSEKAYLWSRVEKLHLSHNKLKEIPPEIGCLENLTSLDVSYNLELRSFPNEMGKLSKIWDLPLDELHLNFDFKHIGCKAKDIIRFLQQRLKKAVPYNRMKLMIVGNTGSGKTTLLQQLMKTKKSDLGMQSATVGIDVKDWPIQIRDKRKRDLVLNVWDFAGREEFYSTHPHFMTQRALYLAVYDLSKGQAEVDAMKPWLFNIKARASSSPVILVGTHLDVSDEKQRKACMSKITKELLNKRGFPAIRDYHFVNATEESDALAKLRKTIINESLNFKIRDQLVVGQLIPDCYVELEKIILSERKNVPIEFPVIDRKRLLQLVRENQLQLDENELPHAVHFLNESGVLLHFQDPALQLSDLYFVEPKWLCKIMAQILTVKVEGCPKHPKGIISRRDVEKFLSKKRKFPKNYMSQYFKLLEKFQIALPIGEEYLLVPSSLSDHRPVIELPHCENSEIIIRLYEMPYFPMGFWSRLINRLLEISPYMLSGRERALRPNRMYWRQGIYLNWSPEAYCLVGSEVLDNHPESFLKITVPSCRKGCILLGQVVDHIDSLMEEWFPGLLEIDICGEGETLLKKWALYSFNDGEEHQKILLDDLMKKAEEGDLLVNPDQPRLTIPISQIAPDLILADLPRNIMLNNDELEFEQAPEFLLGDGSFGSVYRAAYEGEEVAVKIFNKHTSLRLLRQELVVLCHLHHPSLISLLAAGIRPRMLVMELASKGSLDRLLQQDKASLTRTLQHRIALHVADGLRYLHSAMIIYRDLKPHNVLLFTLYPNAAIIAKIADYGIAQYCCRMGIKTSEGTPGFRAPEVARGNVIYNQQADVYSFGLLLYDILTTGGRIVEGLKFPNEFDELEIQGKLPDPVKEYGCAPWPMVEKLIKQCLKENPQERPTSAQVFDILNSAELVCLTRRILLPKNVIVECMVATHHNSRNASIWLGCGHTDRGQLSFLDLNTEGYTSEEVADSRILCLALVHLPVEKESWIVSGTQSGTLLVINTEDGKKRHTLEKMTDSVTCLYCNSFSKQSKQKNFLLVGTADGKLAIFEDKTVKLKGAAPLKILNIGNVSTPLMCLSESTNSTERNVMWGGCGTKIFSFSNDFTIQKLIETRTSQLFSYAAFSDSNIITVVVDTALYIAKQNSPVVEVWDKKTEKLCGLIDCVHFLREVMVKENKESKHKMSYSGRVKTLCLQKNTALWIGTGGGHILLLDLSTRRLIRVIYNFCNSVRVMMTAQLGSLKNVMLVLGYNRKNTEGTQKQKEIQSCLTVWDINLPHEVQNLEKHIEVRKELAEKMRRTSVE
T1 sequence (Q5S007 whole entry): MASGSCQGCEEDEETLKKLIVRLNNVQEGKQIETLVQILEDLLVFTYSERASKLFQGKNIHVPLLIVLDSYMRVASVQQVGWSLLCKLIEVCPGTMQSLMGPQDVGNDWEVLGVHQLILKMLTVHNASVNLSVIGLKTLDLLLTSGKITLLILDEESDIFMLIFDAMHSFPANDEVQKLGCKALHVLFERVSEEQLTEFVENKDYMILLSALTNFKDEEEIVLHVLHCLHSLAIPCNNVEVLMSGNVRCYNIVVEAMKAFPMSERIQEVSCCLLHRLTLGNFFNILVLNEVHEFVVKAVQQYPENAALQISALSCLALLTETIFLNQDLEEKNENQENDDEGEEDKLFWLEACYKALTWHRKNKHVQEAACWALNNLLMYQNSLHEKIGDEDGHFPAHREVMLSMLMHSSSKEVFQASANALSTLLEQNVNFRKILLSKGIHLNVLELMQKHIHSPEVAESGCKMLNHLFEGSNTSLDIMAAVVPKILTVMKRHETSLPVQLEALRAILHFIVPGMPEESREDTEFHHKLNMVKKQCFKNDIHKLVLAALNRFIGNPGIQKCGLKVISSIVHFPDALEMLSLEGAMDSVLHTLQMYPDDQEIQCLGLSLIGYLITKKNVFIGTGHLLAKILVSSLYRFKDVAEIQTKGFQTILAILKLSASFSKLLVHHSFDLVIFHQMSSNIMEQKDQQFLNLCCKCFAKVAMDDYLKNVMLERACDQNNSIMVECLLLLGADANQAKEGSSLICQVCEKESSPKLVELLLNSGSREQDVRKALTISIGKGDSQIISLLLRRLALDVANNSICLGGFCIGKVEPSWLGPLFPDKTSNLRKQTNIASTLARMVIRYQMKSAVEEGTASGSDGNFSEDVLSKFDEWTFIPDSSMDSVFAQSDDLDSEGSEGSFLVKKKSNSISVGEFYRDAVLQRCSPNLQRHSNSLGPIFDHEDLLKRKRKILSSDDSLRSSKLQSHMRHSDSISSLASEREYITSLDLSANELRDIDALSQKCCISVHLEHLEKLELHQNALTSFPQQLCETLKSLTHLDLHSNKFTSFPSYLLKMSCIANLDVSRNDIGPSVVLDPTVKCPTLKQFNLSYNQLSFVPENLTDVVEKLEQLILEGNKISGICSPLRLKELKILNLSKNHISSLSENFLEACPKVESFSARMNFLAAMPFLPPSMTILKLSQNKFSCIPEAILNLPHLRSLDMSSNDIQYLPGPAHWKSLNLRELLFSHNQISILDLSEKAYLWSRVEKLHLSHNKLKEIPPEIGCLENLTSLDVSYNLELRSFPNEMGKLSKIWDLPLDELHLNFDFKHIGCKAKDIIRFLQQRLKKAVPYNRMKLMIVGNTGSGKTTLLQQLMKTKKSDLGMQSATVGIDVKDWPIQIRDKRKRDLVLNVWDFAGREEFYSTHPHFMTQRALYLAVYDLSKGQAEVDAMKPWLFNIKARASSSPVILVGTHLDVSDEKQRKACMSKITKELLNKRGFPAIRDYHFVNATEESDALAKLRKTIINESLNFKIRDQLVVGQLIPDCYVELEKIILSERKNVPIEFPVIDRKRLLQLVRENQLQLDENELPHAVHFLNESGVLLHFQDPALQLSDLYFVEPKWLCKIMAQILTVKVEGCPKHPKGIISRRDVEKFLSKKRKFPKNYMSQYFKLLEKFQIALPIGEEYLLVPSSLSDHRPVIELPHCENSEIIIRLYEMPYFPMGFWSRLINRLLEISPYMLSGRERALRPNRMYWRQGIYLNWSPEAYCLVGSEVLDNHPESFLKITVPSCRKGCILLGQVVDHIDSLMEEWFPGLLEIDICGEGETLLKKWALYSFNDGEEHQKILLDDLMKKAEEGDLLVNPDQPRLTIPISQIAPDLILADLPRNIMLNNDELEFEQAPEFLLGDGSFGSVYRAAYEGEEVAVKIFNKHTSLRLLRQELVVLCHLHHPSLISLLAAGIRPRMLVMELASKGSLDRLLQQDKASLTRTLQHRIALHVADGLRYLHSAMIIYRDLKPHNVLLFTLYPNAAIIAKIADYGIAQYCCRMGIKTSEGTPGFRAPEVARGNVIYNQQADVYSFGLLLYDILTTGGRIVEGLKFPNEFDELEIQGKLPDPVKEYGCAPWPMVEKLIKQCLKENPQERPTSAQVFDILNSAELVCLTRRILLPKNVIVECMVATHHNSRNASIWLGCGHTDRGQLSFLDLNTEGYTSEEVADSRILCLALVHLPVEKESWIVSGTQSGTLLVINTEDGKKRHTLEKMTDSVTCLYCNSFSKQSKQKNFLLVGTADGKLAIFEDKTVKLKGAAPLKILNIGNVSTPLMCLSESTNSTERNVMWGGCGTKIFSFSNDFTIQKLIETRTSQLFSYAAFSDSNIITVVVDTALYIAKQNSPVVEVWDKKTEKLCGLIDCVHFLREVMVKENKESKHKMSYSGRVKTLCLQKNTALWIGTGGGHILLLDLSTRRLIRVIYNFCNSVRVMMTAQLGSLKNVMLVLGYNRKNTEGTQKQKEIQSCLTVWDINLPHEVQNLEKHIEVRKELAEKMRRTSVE

With `COc1nc(N2CCOCC2)cc(-n2ncc3cc(C)c(C4CCN(C5CCOC5)CC4F)cc32)n1` (single isomer, unassigned) [Example E116, Cis-4-(6-(6-(3-fluoro-1-(tetrahydrofuran-3-yl)-piperidin-4-yl)-5-methyl-1H-indazol-1-yl)-2-methoxypyrimidin-4-yl)morpholine], the IC50 in assay [1] and in assay [2] was at most 100 nM each time.

As to `COc1nc(N2CCO[C@@H](CO)C2)cc(-n2ncc3cc(C)c(C4CCN(C5CCOC5)CC4F)cc32)n1` (single isomer, unassigned) [Example E117], the IC50 in assay [1] is at most 10 nM; in assay [2] it was at most 1000 nM.

For the compound `COc1nc(N2CCO[C@@H](CO)C2)cc(-n2ncc3cc(C)c(C4CCN(C5CCOC5)CC4F)cc32)n1` (single isomer, unassigned) [Example E118], the IC50 in assay [1] and in assay [2] was at most 10 nM throughout.

For `COc1nc(N2CCO[C@@H](CO)C2)cc(-n2ncc3cc(C)c(C4CCN(C5CCOC5)CC4F)cc32)n1` (single isomer, unassigned) [Example E119], the IC50 in assay [1] and in assay [2] was at most 100 nM throughout.

For `COc1nc(N2CCO[C@@H](CO)C2)cc(-n2ncc3cc(C)c(C4CCN(C5CCOC5)CC4F)cc32)n1` (single isomer, unassigned) [Example E120], the IC50 in assay [1] and in assay [2] was at most 10 nM throughout.

Turning to `COc1nc(N2CCO[C@H](CO)C2)cc(-n2ncc3cc(C)c(C4CCN(C5CCOC5)CC4F)cc32)n1` (single isomer, unassigned) [Example E124], the IC50 in assay [1] and in assay [2] was at most 100 nM each time.

For the compound `COc1nc(N2CCOCC2)cc(-n2ncc3cc(C)c(C4CCN(C5CCOC5)CC4F)cc32)n1` (single isomer, unassigned) [Example E125, 4-(6-(6-(3-fluoro-1-(tetrahydrofuran-3-yl)-piperidin-4-yl)-5-methyl-1H-indazol-1-yl)-2-methoxypyrimidin-4-yl)morpholine], the IC50 in assay [1] is at most 10 nM; in assay [2] it was at most 1000 nM.

Take `COc1nc(N2CCOCC2)cc(-n2ncc3cc(C)c(C4CCN(C5CCOC5)CC4F)cc32)n1` (single isomer, unassigned) [Example E126, 4-(6-(6-(3-fluoro-1-(tetrahydrofuran-3-yl)-piperidin-4-yl)-5-methyl-1H-indazol-1-yl)-2-methoxypyrimidin-4-yl)morpholine]: the IC50 in assay [1] and in assay [2] was at most 100 nM each time.

In the case of `Cc1nc(N2CC(C)(O)C2)cc(-n2ncc3cc(Cl)c(C4CCN(C5CCOC5)CC4)cc32)n1` (single isomer, unassigned) [Example E128, 1-(6-(5-chloro-6-(1-(tetrahydrofuran-3-yl)piperidin-4-yl)-1H-indazol-1-yl)-2-methyl-pyrimidin-4-yl)-3-methylazetidin-3-ol], the IC50 in assay [1] and in assay [2] was at most 1000 nM in each case.

With `Cc1nc(N2CCO[C@@H](CO)C2)cc(-n2ncc3cc(Cl)c(C4CCN(C5CCOC5)CC4)cc32)n1` (single isomer, unassigned) [Example E130], the IC50 in assay [1] and in assay [2] was at most 100 nM throughout.

Take `Cc1nc(N[C@H]2C[C@@H](O)C2)cc(-n2ncc3cc(C)c(C4CCN(C5CCOC5)CC4)cc32)n1` (single isomer, unassigned) [Example E133, Cis-3-((2-methyl-6-(5-methyl-6-(1-(tetrahydrofuran-3-yl)piperidin-4-yl)-1H-indazol-1-yl)pyrimidin-4-yl)amino)cyclobutanol]: the IC50 in assay [1] and in assay [2] was at most 1000 nM each time.

In the case of `Cc1nc(N[C@H]2C[C@@H](O)C2)cc(-n2ncc3cc(C)c(C4CCN(C5CCOC5)CC4)cc32)n1` (single isomer, unassigned) [Example E134, Cis-3-((2-methyl-6-(5-methyl-6-(1-(tetrahydrofuran-3-yl)piperidin-4-yl)-1H-indazol-1-yl)pyrimidin-4-yl)amino)cyclobutanol], the IC50 in assay [1] and in assay [2] was at most 100 nM each time.

For `Cc1nc(N2CCOC(C(C)O)C2)cc(-n2ncc3cc(C)c(C4CCN(C5CCOC5)CC4)cc32)n1` (single isomer, unassigned) [Example E135, 1-(4-(2-methyl-6-(5-methyl-6-(1-(tetrahydrofuran-3-yl)piperidin-4-yl)-1H-indazol-1-yl)pyrimidin-4-yl)morpholin-2-yl)ethanol], the IC50 in assay [1] and in assay [2] was at most 100 nM throughout.

With `Cc1nc(N2CCOC(C(C)O)C2)cc(-n2ncc3cc(C)c(C4CCN(C5CCOC5)CC4)cc32)n1` (single isomer, unassigned) [Example E136, 1-(4-(2-methyl-6-(5-methyl-6-(1-(tetrahydrofuran-3-yl)piperidin-4-yl)-1H-indazol-1-yl)pyrimidin-4-yl)morpholin-2-yl)ethanol], the IC50 is at most 1000 nM in assay [1] and at most 100 nM in assay [2].
